According to patent US20100210568A1, “T[…] HORMONE FOR […] APPLICATIONS” (priority 2007, published 2010):

Tests used:
HepG2-2.2.15 cells = assay: Cytotoxicity (dye uptake cell viability) in the HBV assay; assay type: cell-based; conditions: % cell control
[1] = test system: Primary Human endothelial cells (HUVEC); assay: Endothelial cell migration assay; assay type: cell-based; conditions: peptide 10 micrograms per ml; 22 hours
A549 cells [2] = assay: Apoptosis prevention assay (C2 ceramide, Annexin-5); assay type: cell-based, human; conditions: peptide 10 micrograms per ml; 30 min pretreatment, then C2 ceramide
HCMV strain AD169 = assay: HCMV plaque reduction assay in MRC-5 cells; assay type: cell-based
Excerpt: (§1) Cells were split twic a week 1:2.
Ganciclovir was used as positive control.

[3] = Cytotoxicity (dye uptake cell viability) in the HBV assay; assay type: cell-based; conditions: human, HepG2-2.2.15 cells, % cell control
[4] = test system: Interleukin-2 (IL-2), spleen cells; assay: Th1/Th2 cytokine profiling assay: IL-2; assay type: cell-based, Balb/c mice; conditions: peptide 10 micrograms per ml; Ovalbumin restimulation 10 micrograms/ml; 72 hours
MRSA = conditions: peptide 10 micrograms per ml, visual reading of growth
[5] = test system: TNF alpha production in PBMC-derived macrophages; assay: TNF alpha production assay (LPS-stimulated macrophages, ELISA); assay type: cell-based, human; conditions: peptide 10 micrograms per ml, 30 min; lipopolysaccharide 200 ng/ml; overnight
Excerpt: Not stimulated macrophages served as negative background control.

Pseudomonas aeruginosa = Pseudomonas aeruginosa assay; assay type: cell-based; conditions: peptide 10 micrograms per ml, visual reading of growth
HIV-1IIIB = assay: HIV-1 antiviral assay (CPE reduction, MTS) in CEM-SS cells; assay type: cell-based; conditions: for % CPE reduction in HIV-1 infected CEM-SS cells: test peptide 10 micrograms per ml, 6 days post-infection, MTS; for antiviral activity of positive control compounds (in words): HIV-1 assay validity
[6] = test system: Human Peripheral Blood Mononuclear Cells (PBMC), B cell proliferation; assay: B cell proliferation assay (SAC plus Interleukin-2, 3H-thymidine); assay type: cell-based; conditions: peptide 10 micrograms per ml; 3 days plus 12 hours 3H-thymidine
[7] = test system: Interleukin-4 (IL-4), spleen cells; assay: Th1/Th2 cytokine profiling assay: IL-4; assay type: cell-based, Balb/c mice; conditions: peptide 10 micrograms per ml; Ovalbumin restimulation 10 micrograms/ml; 72 hours
[8] = Cytotoxicity testing in MRC-5 cells (CellTiter 96); assay type: cell-based, human; conditions: human, MRC-5 cells (embryonal lung fibroblasts), 6 days incubation, read-out: % Cell Viability
Method: as §1
(§2) For cytotxicity testing, MRC-5 cells were seeded at 2,500 cells/well in 96 well plates using growth medium. […] The following day, peptide was added and tested in duplicates. After a 6 days incubation period, cell viability was measured using CellTiter 96 Solution (Promega). Plates were incubated for additional 4 hours at 37° C.

[9] = test system: Tumor Necrosis Factor-α (TNF-α), spleen cells; assay: Th1/Th2 cytokine profiling assay: TNF-α; assay type: cell-based, Balb/c mice; conditions: peptide 10 micrograms per ml; Ovalbumin restimulation 10 micrograms/ml; 72 hours
[10] = test system: Human Peripheral Blood Mononuclear Cells (PBMC), T cell proliferation; assay: T cell proliferation assay (PHA, 3H-thymidine); assay type: cell-based; conditions: peptide 10 micrograms per ml; 3 days plus 12 hours 3H-thymidine
[11] = Cytotoxicity (MTS cell viability) in the HIV-1 assay; conditions: human, CEM-SS cells
HUVEC = assay: Endothelial tube formation assay; assay type: cell-based, human; conditions: peptide 10 micrograms per ml; 20 hours
Excerpt: Positive control was vehicle only. […] Raw data were expressed as average tubule lenghs in pixels±standard deviation.

Streptococcus pneumoniae = Streptococcus pneumoniae assay; assay type: cell-based; conditions: peptide 10 micrograms per ml, visual reading of growth
[12] = test system: Interferon-γ (IFN-γ), spleen cells; assay: Th1/Th2 cytokine profiling assay: IFN-γ; assay type: cell-based, Balb/c mice; conditions: peptide 10 micrograms per ml; Ovalbumin restimulation 10 micrograms/ml; 72 hours
[13] = test system: hepatitis B virus (HBV) ayw strain in HepG2-2.2.15 cells; assay: HBV experimental assay system (secreted HBV DNA, TaqMan PCR); assay type: cell-based; conditions: test peptide 10 micrograms per ml; six days; HBV DNA in supernatant
RAW 264.7 cells = assay: Phagocytosis assay (Fluorescein-labeled Escherichia coli, flow cytometry); assay type: cell-based, mouse; conditions: peptide 10 micrograms per ml; 30 min preincubation, 60 min ingestion
Method: RAW 264.7 (Mouse leukaemic monocyte macrophage cell line) cells were obtained from ATCC and grown in RPMI 1640 medium containing 10% FBS. […] After the cells were incubated for additional 60 min at 37° C. and allowed to ingest the Fluorescein-labeled Escherichia coli bacteria, cells were fixed with 1% paraformaldehyde. The samples were then analyzed by flow cytometry to determine the amount of phagocytosis as a function of brightness (the greater the phagocytic activity, the more fluorescence in the macrophage population). Data are reported as % positive and the mean fluorescence intensity (MFI) of positively stained cells.

A549 cells [14] = assay: Apoptosis induction assay (Annexin-5); assay type: cell-based, human; conditions: peptide 10 micrograms per ml, 24 hours
[15] = test system: Interleukin-5 (IL-5), spleen cells; assay: Th1/Th2 cytokine profiling assay: IL-5; assay type: cell-based, Balb/c mice; conditions: peptide 10 micrograms per ml; Ovalbumin restimulation 10 micrograms/ml; 72 hours
[16] = test system: cyclic AMP generation in human peripheral blood mononuclear cells (PBMC); assay: cAMP induction assay (ELISA); assay type: cell-based; conditions: 10 min at 37° C.; forskolin 50 micrograms per ml as positive control
Method: The cAMP kit was used as an immunoassay for the quantitative determination of cyclic AMP generation in human peripheral blood mononuclear cells (PBMC). PBMC were placed in 96-well microtitier plates (50 microliters of cells at 4×10^6/ml) and 50 microliters of medium alone (background control), forskolin (cAMP positive control; 50 micrograms per ml), or test peptide were added. Plates were mixed and incubated for 10 min at 37° C. and the cells were lysed by the addition of 50 microliters of 3% perchloric acid. NaOH was added to neutralize the samples. Plates were centrifuged for 15 min at 2500 rpm and the supernatants removed. The supernatants (diluted 2-fold in assay buffer) were then assayed for the levels of cAMP by ELISA.

A549 cells [17] = assay: Cell cycle assay (propidium iodide, FACS); assay type: cell-based, human; conditions: peptide 10 micrograms per ml, 24 hours
CEM-SS cells = assay: Cytotoxicity (MTS cell viability) in the HIV-1 assay; conditions: test peptide 10 micrograms per ml, MTS
MRC-5 cells = assay: Cytotoxicity testing in MRC-5 cells (CellTiter 96); assay type: cell-based, human; conditions: 6 days incubation
Method: as §1, §2

Nc1ccn([C@@H]2CS[C@H](CO)O2)c(=O)n1 [Compound 3TC, Lamivudine, reference compound]
% Cell viability (HepG2-2.2.15 cells): 95.8%

NC(=O)[C@@H]1CCCN1C(=O)[C@H](Cc1cnc[nH]1)NC(=O)[C@@H]1CCC(=O)N1 [TRH, Pyr-His-Pro-NH2]
% inhibition of migration [1]: −12%
% prevention of ceramide induced apoptosis (A549 cells [2]): 17.2%
% plaque reduction (HCMV strain AD169; peptide 10 micrograms per ml, 7-10 days, MRC-5 cells): 0.0%
viability at 144 h, 10 micrograms per ml [3]: 87.4%
IL-2 spleen cells (% of control) [4]: 0.0 % of control
% inhibition (MRSA): 0.0%
% of LPS induction [5]: 106.7%
% inhibition (Pseudomonas aeruginosa): 0.0%
% CPE reduction in HIV-1 infected CEM-SS cells (HIV-1IIIB): 0.0%
% of SAC/IL2 induced control [6]: 106.0%
IL-4 spleen cells; TH2 response (% of control) [7]: 106.2 % of control
viability at 144 h [8]: 100%
TNF-a spleen cells; TH1 response (% of control) [9]: 110.7 % of control
% of PHA induced Control [10]: 98.6%
viability at 10 micrograms per ml [11]: 94.6%
% inhibition of tube formation (HUVEC): 7%
% inhibition (Streptococcus pneumoniae): 0.0%
IFNγ spleen cells; TH1 response (% of control) [12]: 102.0 % of control
% inhibition of HBV replication in HEP G2 cells [13]: 3.3%
% of control phagocytosis (RAW 264.7 cells): 131.4%
% of induction (A549 cells [14]): 0.7%
IL-5 spleen cells; TH2 response (% of control) [15]: 67.5 % of control
% of Forskolin (positive control) induced cAMP formation [16]: 0.0%
Cell cycle analysis G0/G1 (A549 cells [17]): 58.1
Cell cycle analysis G2/M (A549 cells [17]): 10.7
Cell cycle analysis S (A549 cells [17]): 31.3

Cc1cn([C@H]2C[C@H](N=[N+]=[N-])[C@@H](CO)O2)c(=O)[nH]c1=O [AZT]
antiviral activity of positive control compounds (in words) (HIV-1IIIB): expected levels of antiviral activity
% CPE reduction in HIV-1 infected CEM-SS cells (HIV-1IIIB): 99%
% Cell viability (CEM-SS cells): 97%

CC(C)(C)NC(=O)[C@@H]1CN(Cc2cccnc2)CCN1C[C@@H](O)C[C@@H](Cc1ccccc1)C(=O)N[C@H]1c2ccccc2C[C@H]1O [Indinavir]
antiviral activity of positive control compounds (in words) (HIV-1IIIB): expected levels of antiviral activity
% Cell viability (CEM-SS cells): 93%

Nc1nc(O)c2ncn(COC(CO)CO)c2n1 [Ganciclovir, reference compound]
antiviral activity of positive control compound (in words) (HCMV strain AD169; HCMV assay validity): expected levels of antiviral activity
% Cell viability (MRC-5 cells): 100%
